The values that follow come from patent US12421212B2, “Substituted benzenecarboxamides as IL-17A modulators” (DiCE Alpha, Inc., priority 2019, dated 2025).

In this assay the target is T1, IL-17A/A (Homo sapiens, UniProt Q16552).
T1 construct: purchased Genscript Z03228
T1 sequence (Q16552 24-155): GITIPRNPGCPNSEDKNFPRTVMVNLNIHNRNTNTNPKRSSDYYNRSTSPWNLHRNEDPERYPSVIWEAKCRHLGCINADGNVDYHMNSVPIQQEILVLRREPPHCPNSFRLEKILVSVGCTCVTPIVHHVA
Description: IL-17A/A HEK-Blue Cell Assay. Particulars: HEK-Blue IL-17A reporter cell line, SEAP readout at A630, 20 hours incubation with IL-17A/A, top concentration 10 uM, 1 uM or 0.3 uM; for IC50: read-out: IL-17A/A inhibition (pIC50) (converted). It is filed as cell-based. On the procedure: The HEK-Blue IL-17A reporter cell line (Fisher #NC1408637) was used for cell-based IL-17A/A inhibition assays. Cells were grown and prepared for assays according to the manufacturer's instructions. This cell line consists of HEK 293 cells that were designed to expressed IL-17RA, IL-17RC, and the ActI adapter molecule, the combination of which, when stimulated by IL-17A/A activates a NFκB promoter and drives expression of a recombinant Secreted Alkaline Phosphatase (SEAP) geneprotein. Media from the cells is then added to a development reagent (Quanti-Blue Substrate, Fisher #NC9711613), and read at A630.
Compounds were titrated in DMSO, with a top final compound concentration of 10 uM, 1 uM, or 0.3 uM, and added to the cells immediately before adding IL-17A/A (Genscript #Z03228). The cells, compound, and IL-17A/A were then incubated for 20 hours before media was removed for SEAP analysis. The resulting inhibition curve was then analyzed using Graphpad Prism 7.0, and IC50 values were determined using a 4-parameter nonlinear fit. DMSO was added to a universal final concentration of 0.1% to optimize background.

For the compound `CCC(=O)N[C@@H](C(=O)N1CCN(C)CC1)[C@@H](CC)c1ccc(NC(=O)[C@@H](NC(=O)c2ccnn2CC)C2CCCCC2)cc1` [Compound 680], the IC50 was 100 to 10000 nM. Consider `CCn1nccc1C(=O)N[C@H](C(=O)Nc1ccc([C@H](C)[C@@H](NC(=O)c2ccnn2C2CCN(C)CC2)C(=O)N2CCN(C)CC2)cc1F)[C@H]1CC[C@H](C)CC1` [Compound 486], for which the IC50 was 10 to 100 nM.

Turning to `CCn1nccc1C(=O)N[C@H](C(=O)Nc1ccc(C[C@@H](NC(=O)c2cnns2)C(=O)N2CCN(C)CC2)cc1F)C1CCCCC1` [Compound 322], the IC50 was 10 to 100 nM.

For the compound `CCC(=O)N[C@H](Cc1ccc(NC(=O)[C@@H](NC(=O)Cc2c[nH]cn2)C2CCCCC2)c(F)c1)C(=O)N1CCN(C)CC1` [Compound 776], the “IL-17A/A inhibition (pIC50)” value was “X1b (compounds were evaluated up to 10 uM and inhibited activity at 10 uM by less than 20%)”.

As for `CCC(=O)N[C@@H](C(=O)N1CCN(C)CC1)[C@@H](C)c1ccc(NC(=O)[C@@H](NC(=O)c2conc2C2CC2)[C@H]2CC[C@H](C)CC2)c(F)c1` [Compound 279], the IC50 is 10 to 100 nM. The same measure, in the same setting: for `CCC(=O)N[C@@H](C(=O)N1CCN(CC)[C@@H](C)C1)[C@@H](C)c1ccc(NC(=O)[C@@H](NC(=O)c2nonc2CC)[C@H]2CC[C@H](C)CC2)c(F)c1` [Compound 467] the value was less than 10 nM. In the case of `CCC(=O)NC(C(=O)NCC1CCC1)C(C)c1ccc(NC(=O)[C@@H](NC(=O)c2ccnn2CC)[C@H]2CC[C@H](C)CC2)c(F)c1` (single isomer, unassigned) [Compound 662], the “IL-17A/A inhibition (pIC50)” value was “X3a (compounds were evaluated up to 0.3 uM and did not inhibit activity by >80%, however they showed some activity at 0.3 uM (less than 80% and more than 20%))”. With `CCC(=O)N[C@H](Cc1ccc(NC(=O)[C@@H](NC(=O)c2ccc(C(=O)NC)n2C)C2CCCCC2)c(F)c1)C(=O)N1CCN(C)CC1` [Compound 780], the “IL-17A/A inhibition (pIC50)” value is “X1b (compounds were evaluated up to 10 uM and inhibited activity at 10 uM by less than 20%)”.

Consider `CCC(=O)N[C@@H](C(=O)N[C@@H](C)C1CC1)[C@@H](C)c1ccc(NC(=O)[C@@H](NC(=O)c2ccnn2CC)C2CCCCCC2)c(F)c1` [Compound 537], for which the IC50 was 10 to 100 nM. Still for that read-out and setting: for `CCC(=O)N[C@@H](C(=O)N1CCN(C)CC1)[C@@H](C)c1ccc(NC(=O)[C@@H](NC(=O)c2nonc2OC)[C@H]2CC[C@H](C)CC2)c(F)c1` [Compound 551] the value was 10 to 100 nM; for `CCC(=O)N[C@@H](C(=O)N1CCN(C)[C@H](C)C1)[C@@H](C)c1ccc(NC(=O)[C@@H](NC(=O)c2ccnn2CC)[C@H]2CC[C@H](C)CC2)c(F)c1` [Compound 436], less than 10 nM. In the case of `CCC(=O)N[C@H](C(=O)N1CCN(C)CC1)[C@@H](C)c1ccc(NC(=O)[C@@H](NC(=O)c2ccnn2CC)[C@H]2CC[C@H](C)CC2)c(F)c1` [Compound 543], the “IL-17A/A inhibition (pIC50)” value is “X3b (compounds were evaluated up to 0.3 uM and inhibited activity at 0.3 uM by less than 20%)”. As to `CCC(=O)N[C@@H](C(=O)N1CCN(CCOC)CC1)[C@@H](C)c1ccc(NC(=O)[C@@H](NC(=O)c2ccnn2CC)C2CCCCC2)c(F)c1` [Compound 358], the IC50 was 10 to 100 nM. The same measure, in the same setting: for `CCc1nonc1C(=O)N[C@H](C(=O)Nc1ccc([C@H](C)[C@@H](NC(=O)c2ccnn2C)C(=O)N2CCN(C)CC2)cc1F)[C@H]1CC[C@H](C)CC1` [Compound 490] the value was 10 to 100 nM; for `CCCn1nccc1C(=O)N[C@H](C(=O)Nc1ccc(C[C@@H](NC(=O)CC)C(=O)N2CCN(C)CC2)cc1F)C1CCCCC1` [Compound 237], 10 to 100 nM.

On to `CCC(=O)N[C@H](Cc1ccc(NC(=O)[C@@H](NC(=O)C(F)(F)C2(O)CCCC2)C2CCCCC2)c(F)c1)C(=O)N1CCN(C)CC1` [Compound 715], for which the “IL-17A/A inhibition (pIC50)” value was “X2b (compounds were evaluated up to 1 uM and inhibited activity at 1 uM by less than 20%)”. `CCC(=O)N[C@@H](C(=O)N1CCC(F)(F)CC1)[C@@H](C)c1ccc(NC(=O)[C@@H](NC(=O)c2nonc2CC)[C@H]2CC[C@H](C)CC2)c(F)c1` [Compound 468]: the IC50 was 10 to 100 nM. As to `CCC(=O)N[C@@H](C(=O)N1CCN(C)CC1)[C@@H](C)c1ccc(NC(=O)[C@@H](NC(=O)c2coc3ccncc23)C2CCCCC2)c(F)c1` [Compound 247], the IC50 is 10 to 100 nM. On the same count and under the same terms, for `CCC(=O)N[C@H](Cc1ccc(NC(=O)[C@@H](NC(=O)c2ccnn2CC)C2CCC(F)(F)CC2)c(F)c1)C(=O)N1CCN(C)CC1` [Compound 689] the value was 100 to 10000 nM. On to `CCC(=O)N[C@@H](C(=O)N1CCN(C)CC1)[C@@H](C)c1ccc(NC(=O)C(NC(=O)c2ccnn2CC)C(CC)c2ccc(Cl)cc2)c(F)c1` (single isomer, unassigned) [Compound 560], for which the “IL-17A/A inhibition (pIC50)” value is “X2b (compounds were evaluated up to 1 uM and inhibited activity at 1 uM by less than 20%)”. Same read-out and setting: in the case of `CCC(=O)N[C@@H](C(=O)N1CCN(C)CC1)[C@@H](C)c1ccc(NC(=O)[C@@H](NC(=O)[C@@H]2CCCN2C)C2CCCCC2)c(F)c1` [Compound 758] it was “X2b (compounds were evaluated up to 1 uM and inhibited activity at 1 uM by less than 20%)”. Take `CCn1nccc1C(=O)N[C@H](C(=O)Nc1ccc(C[C@@H](NC(=O)c2ccnn2-c2ccc(=O)[nH]c2)C(=O)N2CCN(C)CC2)cc1F)C1CCCCC1` [Compound 623]: the IC50 was 100 to 10000 nM. Consider `CCC(=O)N[C@@H](C(=O)N1CCN(C)CC1)[C@@H](C)c1ccc(NC(=O)[C@@H](NC(=O)c2ccnn2C(C)C)C2CCCCC2)cc1` [Compound 633], for which the IC50 is 100 to 10000 nM. The same measure, in the same setting: for `CCn1nccc1C(=O)N[C@H](C(=O)Nc1ccc([C@H](C)[C@@H](NC(=O)c2cnns2)C(=O)N2CCN(Cc3ccccc3)CC2)cc1F)[C@H]1CC[C@H](C)CC1` [Compound 441] the value was less than 10 nM; for `CCC(=O)N[C@@H](C(=O)N1CCN(C)CC1)[C@@H](C)c1ccc(NC(=O)[C@@H](NC(=O)C(F)(F)c2ccc(OC)nc2)C2CCCCC2)cc1` [Compound 221], 10 to 100 nM; for `CCC(=O)N[C@@H](C(=O)N1CCN(C)C[C@H]1C)[C@@H](C)c1ccc(NC(=O)[C@@H](NC(=O)c2nonc2CC)[C@H]2CC[C@H](C)CC2)c(F)c1` [Compound 457], less than 10 nM.

For the compound `CCC(=O)N[C@@H](C(=O)N1CCN(C)CC1)[C@@H](C)c1ccc(NC(=O)[C@@H](NC(=O)C(F)(F)c2cccc(C#N)c2)C2CCCCC2)c(F)c1` [Compound 230], the IC50 is less than 10 nM. Turning to `CCC(=O)N[C@@H](C(=O)NCC1CCC1)[C@@H](C)c1ccc(NC(=O)[C@@H](NC(=O)c2ccnn2CC)C2CCCCCC2)c(F)c1` [Compound 538], the IC50 is less than 10 nM. For the compound `CCC(=O)N[C@@H](C(=O)N1CCN(C)CC1)[C@@H](C)c1ccc(NC(=O)C(NC(=O)c2ccnn2CC)C(OC)c2ccc(F)cc2)c(F)c1` (single isomer, unassigned) [Compound 608], the “IL-17A/A inhibition (pIC50)” value was “X3b (compounds were evaluated up to 0.3 uM and inhibited activity at 0.3 uM by less than 20%)”. Take `CCC(=O)N[C@H](Cc1ccc(NC(=O)[C@@H](NC(=O)c2ccnn2CC)C2CCCCC2)c(F)c1)C(=O)N1CCC(N(C)C)CC1` [Compound 748]: the “IL-17A/A inhibition (pIC50)” value is “X2a (compounds were evaluated up to 1 uM and did not inhibit activity by >80%, however they showed some activity at 1 uM (less than 80% and more than 20%))”.

As to `CCC(=O)N[C@@H](C(=O)N1CCN(C)CC1)[C@@H](C)c1ccc(NC(=O)[C@@H](NC(=O)c2ccnn2CC)[C@H]2CC[C@H](C(F)(F)F)CC2)c(F)c1` [Compound 649], the IC50 is 100 to 10000 nM. As to `CCC(=O)N[C@@H](C(=O)N1CCN(C)CC1)[C@@H](C)c1ccc(NC(=O)[C@@H](NC(=O)c2ccnn2CC)C2CCCCC2)c(F)c1` [Compound 229], the IC50 was 10 to 100 nM. Turning to `CCC(=O)N[C@@H](C(=O)N1CCN(C)CC1)[C@@H](C)c1ccc(NC(=O)[C@@H](NC(=O)C(F)(F)C2CC2)C2CCCCC2)c(F)c1` [Compound 242], the “IL-17A/A inhibition (pIC50)” value was “X2b (compounds were evaluated up to 1 uM and inhibited activity at 1 uM by less than 20%)”. The same measure, in the same setting: in the case of `CCC(=O)N[C@H](Cc1ccc(NC(=O)[C@@H](NC(=O)c2cnc(CNC(C)=O)n2C)C2CCCCC2)c(F)c1)C(=O)N1CCN(C)CC1` [Compound 717] it was “X2b (compounds were evaluated up to 1 uM and inhibited activity at 1 uM by less than 20%)”; in that of `CCC(=O)N[C@H](Cc1ccc(NC(=O)[C@@H](NC(=O)c2ccnn2CCO)C2CCCCC2)c(F)c1)C(=O)N1CCN(C)CC1` [Compound 704], “X2a (compounds were evaluated up to 1 uM and did not inhibit activity by >80%, however they showed some activity at 1 uM (less than 80% and more than 20%))”.

With `CCC(=O)N[C@@H](C(=O)N1CCN[C@H](C)C1)[C@@H](C)c1ccc(NC(=O)[C@@H](NC(=O)c2nonc2CC)[C@H]2CC[C@H](C)CC2)c(F)c1` [Compound 454], the IC50 is 100 to 10000 nM.

As to `CCC(=O)N[C@H](Cc1ccc(NC(=O)[C@@H](NC(=O)c2ccnn2CC)C2CCCCC2)c(F)c1)C(=O)N1CC2(CCN(C)CC2)C1` [Compound 751], the “IL-17A/A inhibition (pIC50)” value was “X2b (compounds were evaluated up to 1 uM and inhibited activity at 1 uM by less than 20%)”.
